From patent US20260217735A1, “HETEROCYCLES AND USES THEREOF” (Kumquat Biosciences Inc., priority 2023, published 2026)

Key:
[1] = biological target: T1, KRAS G12D (Homo sapiens, UniProt P01116, G12D); assay: HTRF assay, KRAS G12D interaction with SOS1; assay type: biochemical; conditions: bins <500 nM / 500 nM to 1000 nM, read-out: Inhibition of KRAS G12D (IC50)
T1 construct: made in house; host or cells: E. coli, e.g. BL21 (DE3)
Excerpt: (§1) This assay can be also used to assess a selective inhibition or reduction of signaling output of a mutant Ras protein relative to a wildtype, or relative to a different mutant Ras protein. For example, the equilibrium interaction of wildtype KRAS or K-Ras mutant (e.g., wildtype or a mutant thereof) with SOS1 (e.g., hSOS1) can be assessed as a proxy or an indication for the ability of a subject compound to bind and inhibit Ras protein. The HTRF assay detects from (i) a fluorescence resonance energy transfer (FRET) donor (e.g., antiGST-Europium) that is bound to GST-tagged K-Ras mutant to (ii) a FRET acceptor (e.g., anti-6His-XL665) bound to a His-tagged hSOSL1.
(§2) The assay buffer can contain ~5 mM HEPES pH 7.4, ~150 mM NaCl, ~1 mM DTT, 0.05% BSA and 0.0025% (v/v) Igepal. A Ras working solution is prepared in an assay buffer containing typically a suitable amount of the protein construct (e.g., GST-tagged K-Ras mutant) and the FRET donor (e.g., antiGST-Eu(K) from Cisbio, France). A SOS1 working solution is prepared in an assay buffer containing suitable amount of the protein construct (e.g., His-hSOS1) and the FRET acceptor (e.g., anti-6His-XL665 from Cisbio, France). A suitable amount of the protein construct will depend on the range of activity or range of IC50 values being detected or under investigation. For detecting an IC50 within a range of 500 nM, the protein constructs of the same range of molarity can be utilized.
(§3) A fixed volume of DMSO with or without test compound is transferred into a 384-well plate. Ras working solution is added to all wells of the test plate. SOS1 working solution is added to all wells except for those that are subsequently filled with inhibitor control solution. Upon incubation for about 10 minutes or longer, the fluorescence is measured with a M1000Pro plate reader (Tecan) using HTRF detection (excitation 337 nm, emission 1: 620 nm, emission 2: 665 nm). Compounds are tested in duplicate at different concentrations (for example, 10 μM, 2.5 μM, 0.63 μM, 0.16 μM, 0.04 μM, 0.01 μM test compound). The ratiometric data (i.e., emission 2 divided by emission 1) is used to calculate IC50 values against Ras using GraphPad Prism (GraphPad software). Signaling output measured in terms of IC50 values can be obtained and a ratio of IC50 against one mutant relative to another mutant can be calculated. For instance, a selective reduction of K-Ras G12S signaling output can be evidenced by a ratio greater than one. In particular, a selective reduction of K-Ras G12S signaling relative to K-Ras WT signaling is evidenced if the ratio of IC50 (against K-Ras WT) to IC50 (against K-Ras G12S) is greater than 1.

[2] = biological target: T2, KRAS WT (Homo sapiens, UniProt P01116); assay: HTRF assay, wildtype KRAS interaction with SOS1; assay type: biochemical; conditions: bins <500 nM / 500 nM to 1000 nM, read-out: Inhibition of KRAS WT (IC50)
T2 construct: made in house; host or cells: E. coli, e.g. BL21 (DE3)
T2 sequence (P01116 1-188 isoform P01116-2): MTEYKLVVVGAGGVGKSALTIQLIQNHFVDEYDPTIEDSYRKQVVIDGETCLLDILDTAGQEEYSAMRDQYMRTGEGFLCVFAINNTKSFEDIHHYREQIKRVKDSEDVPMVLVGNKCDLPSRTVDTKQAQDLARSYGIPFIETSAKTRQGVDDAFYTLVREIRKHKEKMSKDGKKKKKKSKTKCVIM
Excerpt: as §1, §2, §3

[3] = biological target: T3, KRAS G12V (Homo sapiens, UniProt P01116, G12V); assay: HTRF assay, KRAS G12V interaction with SOS1; assay type: biochemical; conditions: bins <500 nM / 500 nM to 1000 nM, read-out: Inhibition of KRAS G12V (IC50)
T3 construct: made in house; host or cells: E. coli, e.g. BL21 (DE3)
T3 sequence (P01116 1-188 isoform P01116-2 G12V): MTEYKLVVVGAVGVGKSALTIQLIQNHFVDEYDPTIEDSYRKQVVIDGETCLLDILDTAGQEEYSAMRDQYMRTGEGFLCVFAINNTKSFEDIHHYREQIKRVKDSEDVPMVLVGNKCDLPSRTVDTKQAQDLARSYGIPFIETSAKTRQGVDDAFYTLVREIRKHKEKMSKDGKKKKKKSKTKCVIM
Excerpt: as §1, §2, §3

[4] = biological target: T4, KRAS G12S (Homo sapiens, UniProt P01116, G12S); assay: HTRF assay, KRAS G12S interaction with SOS1; assay type: biochemical; conditions: bins <500 nM / 500 nM to 1000 nM, read-out: Inhibition of KRAS G12S (IC50)
T4 construct: made in house; host or cells: E. coli, e.g. BL21 (DE3)
T4 sequence (P01116 1-188 isoform P01116-2 G12S): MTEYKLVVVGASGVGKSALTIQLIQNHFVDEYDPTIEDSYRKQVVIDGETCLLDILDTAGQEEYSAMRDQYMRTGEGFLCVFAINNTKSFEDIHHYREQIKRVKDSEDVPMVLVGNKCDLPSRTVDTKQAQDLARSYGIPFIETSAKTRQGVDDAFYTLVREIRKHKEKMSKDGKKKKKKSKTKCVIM
Excerpt: as §1, §2, §3

[5] = tested on: MiaPaca2 cells; assay: Ras cellular assay, growth of cells with K-Ras G12C mutation; assay type: cell-based; conditions: Homo sapiens, MIA PaCa-2; cell proliferation assay; bins ≤500 nM / >500 nM; read-out: Inhibition of MiaPaca2 Cells (IC50)
Description: For example, this assay can be also used to assess selective growth inhibition of a mutant Ras protein relative to a wildtype or different mutant Ras protein.
MIA PaCa-2 (ATCC CRL-1420) and NCI-H1792 (ATCC CRL-5895) cell lines comprise a G12C mutation and can be used to assess Ras cellular signaling in vitro, e.g., in response to an inhibitor compound of the present disclosure. […] MIA PaCa-2 culture medium is prepared with DMEM/Ham's F12 (e.g., with stable glutamine, 10% FCS, and 2.5% horse serum. NCI-H1792 culture medium is prepared with RPMI 1640 (e.g., with stable glutamine) and 10% FCS.
On a first day (e.g., Day 1), Softagar (Select Agar, Invitrogen, 3% in ddH2O autoclaved) is boiled and tempered at 48° C. Appropriate culture medium (i.e., medium) is tempered to 37° C. Agar (3%) is diluted 1:5 in medium (=0.6%) and plated into 96 well plates (Corning, #3904), then incubated at room temperature for agar solidification. A 3% agar is diluted to 0.25% in medium (1:12 dilution) and tempered at 42° C. Cells are trypsinized, counted, and tempered at 37° C. The cells (e.g., MIA PaCa-2 at about 125-150 cells, NCI-H1792 at about 1000 cells) are resuspended in […] 0.25% Agar and plated, followed by incubation at room temperature for agar solidification. The wells are overlaid with […] of the medium. Sister wells in a separate plate are plated for time zero determination. All plates are incubated overnight at 37° C. and 5% CO2.
On a second day (e.g., Day 2), time zero values are measured. A […] volume of Cell Titer 96 Aqueous Solution (Promega) is added to each well and incubated in the dark at 37° C. and 5% CO2. Absorption can be measured at 490 nm and reference wavelength 660 nm. DMSO-prediluted test compounds are added to wells of interest, e.g., with HP Dispenser, to one or more desired concentrations (e.g., a final DMSO concentration of 0.3%).
On a tenth day (e.g., Day 10), absorption by wells treated with the test compounds and control wells are measured with, for example, Cell Titer 96 AQueous and analyzed in comparison to the time zero measurements. The IC50 values are determined using the four parameter fit. The resulting IC50 value is a measurement of the ability of the test compound to reduce cell growth of Ras-driven cells (e.g., tumor cell lines) in vitro and/or in vivo.

T1 sequence (P01116 1-188 isoform P01116-2 G12D): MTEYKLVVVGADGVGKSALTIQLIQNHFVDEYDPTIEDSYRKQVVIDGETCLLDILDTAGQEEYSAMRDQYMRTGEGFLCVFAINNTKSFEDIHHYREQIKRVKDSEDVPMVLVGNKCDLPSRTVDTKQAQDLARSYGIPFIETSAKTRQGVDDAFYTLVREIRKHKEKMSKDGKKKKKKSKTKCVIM

Row | SMILES | IC50 [1] [µM] | IC50 [2] [µM] | IC50 [3] [µM] | IC50 [4] [µM] | IC50 [5] [µM]
1 | CN(c1nc(OC[C@@]23CCCN2C[C@H](F)C3)nc2c(F)c(-c3ccc(F)c4sc(N)c(C#N)c34)c(Cl)cc12)C1CN(C(=O)n2ccnc2)CC1F (mixture of isomers) [Compound 214, 2-amino-4-(6-chloro-8-fluoro-4-((4-fluoro-1-(1H-imidazole-1-carbonyl)pyrrolidin-3-yl)(methyl)amino)-2-(((2R,7aS)-2-fluorotetrahydro-1H-pyrrolizin-7a(5H)-yl)methoxy)quinazolin-7-yl)-7-fluorobenzo[b]thiophene-3-carbonitrile] | < 0.5 | < 0.5 | < 0.5 | < 0.5 | ≤ 0.5
2 | C[C@@H]1[C@H](N(C)c2nc(OC[C@@]34CCCN3C[C@H](F)C4)nc3c(F)c(-c4ccc(F)c5sc(N)c(C#N)c45)c(Cl)cc23)CCN1C(=O)n1ccc(F)n1 [Compound 101, 2-amino-4-(6-chloro-8-fluoro-4-(((2R,3R)-1-(3-fluoro-1H-pyrazole-1-carbonyl)-2-methylpyrrolidin-3-yl)(methyl)amino)-2-(((2R,7aS)-2-fluorotetrahydro-1H-pyrrolizin-7a(5H)-yl)methoxy)quinazolin-7-yl)-7-fluorobenzo[b]thiophene-3-carbonitrile] | < 0.5 | < 0.5 | < 0.5 | < 0.5 | ≤ 0.5
3 | CCN(c1nc(OC[C@@]23CCCN2C[C@H](F)C3)nc2c(F)c(-c3ccc(F)c4sc(N)c(C#N)c34)c(Cl)cc12)[C@@H]1CCN(C(=O)n2cc(C#N)nc2C)[C@@H]1C [Compound 102, 1-((2R,3R)-3-((7-(2-amino-3-cyano-7-fluorobenzo[b]thiophen-4-yl)-6-chloro-8-fluoro-2-(((2R,7aS)-2-fluorotetrahydro-1H-pyrrolizin-7a(5H)-yl)methoxy)quinazolin-4-yl)(ethyl)amino)-2-methylpyrrolidine-1-carbonyl)-2-methyl-1H-imidazole-4-carbonitrile] | < 0.5 | < 0.5 | < 0.5 | < 0.5 | ≤ 0.5
4 | CCN(c1nc(OC[C@@]23CCCN2C[C@H](F)C3)nc2c(F)c(-c3ccc(F)c4sc(N)c(C#N)c34)c(Cl)cc12)[C@@H]1CCN(C(=O)n2cc(C)nc2C#N)[C@@H]1C [Compound 104, 1-((2R,3R)-3-((7-(2-amino-3-cyano-7-fluorobenzo[b]thiophen-4-yl)-6-chloro-8-fluoro-2-(((2R,7aS)-2-fluorotetrahydro-1H-pyrrolizin-7a(5H)-yl)methoxy)quinazolin-4-yl)(ethyl)amino)-2-methylpyrrolidine-1-carbonyl)-4-methyl-1H-imidazole-2-carbonitrile] | < 0.5 | < 0.5 | < 0.5 | < 0.5 | ≤ 0.5
5 | CCN(c1nc(OC[C@@]23CCCN2C[C@H](F)C3)nc2c(F)c(-c3ccc(F)c4sc(N)c(C#N)c34)c(Cl)cc12)[C@@H]1CCN(C(=O)n2ccnc2)[C@@H]1C [Compound 106, 4-(4-(((2R,3R)-1-(1H-imidazole-1-carbonyl)-2-methylpyrrolidin-3-yl)(ethyl)amino)-6-chloro-8-fluoro-2-(((2R,7aS)-2-fluorotetrahydro-1H-pyrrolizin-7a(5H)-yl)methoxy)quinazolin-7-yl)-2-amino-7-fluorobenzo[b]thiophene-3-carbonitrile] | < 0.5 | < 0.5 | < 0.5 | < 0.5 | ≤ 0.5
6 | CCN(c1nc(OC[C@@]23CCCN2C[C@H](F)C3)nc2c(F)c(-c3ccc(F)c4sc(N)c(C#N)c34)c(Cl)cc12)[C@@H]1CCN(C(=O)n2cnc(C)c2)[C@@H]1C [Compound 108, 2-amino-4-(6-chloro-4-(ethyl((2R,3R)-2-methyl-1-(4-methyl-1H-imidazole-1-carbonyl)pyrrolidin-3-yl)amino)-8-fluoro-2-(((2R,7aS)-2-fluorotetrahydro-1H-pyrrolizin-7a(5H)-yl)methoxy)quinazolin-7-yl)-7-fluorobenzo[b]thiophene-3-carbonitrile] | < 0.5 | < 0.5 | < 0.5 | < 0.5 | ≤ 0.5
7 | Cc1cn(C(=O)N(C)CC2(F)CN(c3nc(OC[C@@]45CCCN4C[C@H](F)C5)nc4c(F)c(-c5ccc(F)c6sc(N)c(C#N)c56)c(Cl)cc34)C2)cn1 [Compound 109, N-((1-(7-(2-amino-3-cyano-7-fluorobenzo[b]thiophen-4-yl)-6-chloro-8-fluoro-2-(((2R,7aS)-2-fluorotetrahydro-1H-pyrrolizin-7a(5H)-yl)methoxy)quinazolin-4-yl)-3-fluoroazetidin-3-yl)methyl)-N,4-dimethyl-1H-imidazole-1-carboxamide] | < 0.5 | < 0.5 | < 0.5 | < 0.5 | ≤ 0.5
8 | CCN(c1nc(OC[C@@]23CCCN2C[C@H](F)C3)nc2c(F)c(-c3ccc(F)c4sc(N)c(C#N)c34)c(C(F)(F)F)cc12)[C@@H]1CCN(C(=O)n2cnc(C)c2C)[C@@H]1C [Compound 110, 2-amino-4-(4-(((2R,3R)-1-(4,5-dimethyl-1H-imidazole-1-carbonyl)-2-methylpyrrolidin-3-yl)(ethyl)amino)-8-fluoro-2-(((2R,7aS)-2-fluorotetrahydro-1H-pyrrolizin-7a(5H)-yl)methoxy)-6-(trifluoromethyl)quinazolin-7-yl)-7-fluorobenzo[b]thiophene-3-carbonitrile] | < 0.5 | < 0.5 | < 0.5 | < 0.5 | ≤ 0.5
